# Measured values: US20260115177A1, “MEDICINAL PRODUCTS AND METHODS FOR THE ALLEVIATION OF CANCER IMMUNOTHERA-PY-ASSOCIATED CYTOKINE RELEASE SYNDROME” (POOLBEG PHARMA (UK) LIMITED, priority 2023, published 2026)
# Columns and labels:
# HUVEC endothelial cells = assay: IL-6 and IL-8 ELISA of HUVEC cells treated with sCART-mono supernatant; type: cell-based, human; conditions: 24 hr, concentrations of Table 2
# Method: With reference to FIG. 13 of the accompanying drawings, a co-culture (100) is established using a standard cell culture transwell dish, including a first compartment (101), containing CAR T cells and cancer cells (at a 1:1 ratio), which is separated from a second compartment (102), containing monocytes, by a semi-permeable membrane (103) composed of tissue-culture treated polyethylene terephthalate with a 0.4 μm pore size.
# Each of UR-13870, Acumapimod and Ralimetinib are administered to the co-culture following a procedure analogous to that described in Example 2 above (at the concentrations as shown in Table 2 above).
# The co-culture is incubated at 37° C., 5% CO2 and a suitably humid environment for 24 hours. On completion, the transwell insert is removed and supernatant is isolated. Cells and debris are removed from the supernatant by exposing the container to a centripetal force of 400 G and gently pipetting the supernatant into a new container without disturbing the cell pellet at the bottom of the previous container.
# Prior to adding the p38 inhibitors and sCART-mono, endothelial cells are incubated overnight at 37° C. and 5% CO2 in a suitably humid environment to allow the cells to adhere fully to the tissue culture dish.
# Supernatant levels of IL-6 and IL-8 are determined following 24 hr treatment with sCART-mono and the p38 MAPK inhibitors by ELISA.
# [1] = tested on: PBMC humanized NSG-MHC I/II double knock-out mice with Raji-Luc CD19-expressing cancer cells; assay: In vivo (murine) model using anti-CD28 antibody for CRS induction; set-up: species or system mouse
# Excerpt: An outline of the timeline of the model is provided in FIG. 19; it commences on Study Day 0 and ends on Study Day 10. […] It thus models the effect of administering a p38 MAP kinase inhibitor prior to the onset of CRS in accordance with the present disclosure.
# Anti-CD28 antibody acts as a super-agonist of T cells (i.e., strongly activates T cells) resulting in T cell-mediated tumour cell death, with a rapid consequent release of cytokines and knock-on effects for monocytes and endothelial cells; thus modelling CRS induced by various different types of T cell-involving cancer immunotherapy.
# Thus, on Study Day 0, 30 female 6- to 8-week-old NSG-(KbDb)null (IA)null mice are irradiated at 100 cGy. Approximately 4 hours later, on the same day (Study Day 0) all mice are humanised by IV dosing with 15×10^6 human peripheral blood mononuclear cells (PBMCs).
# On Study Day 5, all mice are intravenously dosed with 0.25×10^6 Raji-Luc CD19-expressing cancer cells (a Raji wild-type cell line with stable and high expression of luciferase, enabling detection of cancer burden by […]). Approximately 4 hours later, mice are imaged using in vivo […] imaging (IVIS). For IVIS, mice are IP injected with 150 mg/kg D-Luciferin. 10 minutes after the D-Luciferin injection, mice are imaged dorsal and ventral; auto exposure) using an IVIS Lumina system (obtainable from PerkinElmer of Chalfont Road. Seer Green, Beaconsfield, HP9 2FX, UK). Regions of interest (ROI) are drawn for each mouse to capture its whole body, and total flux (p/s) is reported. Tumour burden continues to be monitored by IVIS twice per week, starting on Study Day 5, until the end of the study. Daily clinical observation continues throughout the study, including observation of CRS, CRS being scored as follows:
# On Study Day 6, 25 of the 30 mice are treated with 1 mg/kg anti-CD28.
# As a control, a group consisting of the 5 remaining mice (“Group 1”) are not administered anti-CD28. Beginning on Study Day 4 and ending on Study Day 10, Group 1 receive treatment with 0.5% (w:v) HPMC, 0.1% (w:v) Tween 80 in sWFI (vehicle/control), administered BID at 5 mL/kg.
# The 25 mice administered anti-CD28 are divided into groups of 5 mice per group. Administration of a control drug (Humira), vehicle or UR-13870 is carried out in accordance with the following protocol: • Group 2—Vehicle only, BID, beginning on Study Day 4 and ending on Study Day 10; • Group 3—UR-13870 (formulated in vehicle), 2 mg/kg, twice daily (BID) beginning on Study Day 4 and ending on Study Day 10; • Group 4—UR-13870 (formulated in vehicle), 10 mg/kg, twice daily (BID) beginning on Study Day 4 and ending on Study Day 10; • Group 5—UR-13870 (formulated in vehicle), 25 mg/kg, twice daily (BID) beginning on Study Day 4 and ending on Study Day 10; and • Group 6—Humira (formulated in PBS) (further, positive control) 5 mg/kg, once daily beginning on Study Day 4 and ending on Study Day 10.
# Dosing of UR-13870 or vehicle is by subcutaneous injection. Subcutaneous injection sites are rotated for each dose (rotating among right flank, left flank, right inguinal region, left inguinal region). For UR-13870 and vehicle, AM and PM (BID) doses are scheduled at least 6 hours apart. Dosing of Humira is by intraperitoneal injection.
# On Study Days 6, 9 and 10, blood is collected from each of the 30 mice in Groups 1-6 (a 50-200 μl blood sample from each mouse, each time), for flow cytometry analysis, including analysis of CD19+ cancer cells per ml; and cytokine measurement. It should be noted that, where relevant to BID dosed groups, blood collection is carried out between AM and PM dosing.
# All mice in Groups 1-6 are euthanized by CO2 asphyxiation on Study Day 10. […]
smiles,measurement,setting,value
"OCCCn1cc2c(-c3ccc(F)cc3)c(-c3ccncc3)c(-c3ccc(F)cc3)nc2n1 [UR-13870, 6-bis(4-fluorophenyl)-5-(4-pyridinyl)-2Hpyrazolo[3,4-b]pyridine-2-propanol]",IL-6 levels in supernatant,HUVEC endothelial cells,reduced
same,IL-8 levels in supernatant,HUVEC endothelial cells,(albeit non-significant) downward trend
same,tumour cell proliferation (tumour burden by IVIS),[1]; Day 5 to Day 7,does not increase
same,T cell mediated cancer cell death,"[1]; Day 5 to Day 7, tumour burden by IVIS",maintains
same,CRS scores,"[1]; anti-CD28 1 mg/kg, UR-13870 2, 10, 25 mg/kg BID s.c., Humira 5 mg/kg once daily i.p., Study Day 4 to 10",significantly reduces
same,IFNγ,"[1]; blood serum, Luminex",reduced
same,IL-2,"[1]; blood serum, Luminex",reduced
same,IL-4,"[1]; blood serum, Luminex",reduced
same,IL-6,"[1]; blood serum, Luminex",reduced
same,IL-8,"[1]; blood serum, Luminex",reduced
same,IL-10,"[1]; blood serum, Luminex",reduced
same,MIP-1α,"[1]; blood serum, Luminex",reduced
same,TNF a,"[1]; blood serum, Luminex",reduced
same,hCD45+ CD3+ hCD4+ cells/μl,"[1]; blood, day 9",Neither UR-13870 or Humira had a significant impact
same,hCD45+ cells/μl,"[1]; blood, days 9 and 10",Neither UR-13870 or Humira had a significant impact
same,hCD45+ hCD3+ cells/μl,"[1]; blood, days 9 and 10",Neither UR-13870 or Humira had a significant impact
same,proliferation of tumour cells (counts of CD19+ cancer cells per ml),"[1]; blood, flow cytometry",neither UR-13870 or Humira increased proliferation of tumour cells
same,mean CD19+ cancer cells per ml compared to CD28 stimulation only,[1]; days 9 and 10 (especially day 10),downward trend
